Tested on: MDA-MB-231 human triple negative breast cancer cells
Experiment: In vitro cytotoxicity (MTS) of ZiPP-PTX conjugates
Assay type: cell-based
Settings: MDA-MB-231, 72 hours of drug treatment, concentration in terms of the drug, read-out: IC50 (concentration of the drug that reduced cell viability by 50%)
Protocol: In vitro cytotoxicity of ZiPP-PTX conjugates. In vitro cytotoxicity was done on MDA-MB-231 human triple negative breast cancer cells. 3×10^3 cells were seeded per 100 μL of media in Falcon™ 96-well cell culture plates (BD; Franklin Lakes, N.J.). The cells were allowed to adhere for 16-18 hours before being treated with free PTX and ZiPP-PTX at concentrations that ranged from sub-nanomolar to high-micromolar range. After 72 hours of drug treatment, 20 μL of […] (MTS) reagent (CellTiter 96 AQueous™ Promega; Madison, Wis.) was added to each well and incubated for an additional 2 hours. A dose-response curve for free drug and ZiPP-drug conjugate was constructed by measuring the absorbance of each well at 490 nm with a Victor3 microplate reader (Perkin Elmer; Waltham, Mass.). The 50% inhibitory concentration, IC50, was determined by fitting data to the following equation (Andrew MacKay, J., et al. Nat. Mater. 2009, 8, 993-999):
[formula] where V is viability of cells, Ctreatment is drug concentration, and p is slope of the dose response curve. This IC50 value is used to evaluate the potency of the conjugates.
The in vitro cytotoxicity of Zipp-PTX was measured by looking at the cell viability over a range of concentrations as a function of time. […]

Q: Which IC50 does the source give for `CC(=O)O[C@H]1C(=O)[C@@]2(C)[C@H]([C@H](OC(=O)c3ccccc3)[C@]3(O)C[C@H](OC(=O)[C@H](O)[C@@H](NC(=O)c4ccccc4)c4ccccc4)C(C)=C1C3(C)C)[C@]1(OC(C)=O)CO[C@@H]1C[C@@H]2O` [free drug, Paclitaxel] here?
A: The IC50 was ~2 nM.
